Read-outs that look alike come from different tables or passages of the source. Positions of bridges follow the written chain, without caps; N, C: chain ends. Non-standard residues stand in square brackets, D forms with d. Residues, ends and D or L forms follow the SMILES beside them. Phe(4-COOH) = N[C@@H](Cc1ccc(C(=O)O)cc1)C(=O)O; 1Nal = N[C@@H](Cc1cccc2ccccc12)C(=O)O Some results are limits rather than exact numbers.

Common to all, as to experiment: cell-based
In test [1] the target is hNav1.3 (Homo sapiens, UniProt Q9NY46). The settings on record: IonWorks Quattro, read-out: IWQ Use Nav1.3. A general note: Patch clamp records ionic current or voltage across a cell membrane.
Test [2] deals with hNav1.5 (Homo sapiens, UniProt Q14524). The following applies: IonWorks Quattro, read-out: IWQ Use Nav1.5.
For test [3], the target named is hNav1.7 (Homo sapiens, UniProt Q15858). It counts as cell-based. The following applies: IonWorks Quattro, read-out: IWQ Use Nav1.7.
Chain of hNav1.7 (Q15858 whole entry, looked up): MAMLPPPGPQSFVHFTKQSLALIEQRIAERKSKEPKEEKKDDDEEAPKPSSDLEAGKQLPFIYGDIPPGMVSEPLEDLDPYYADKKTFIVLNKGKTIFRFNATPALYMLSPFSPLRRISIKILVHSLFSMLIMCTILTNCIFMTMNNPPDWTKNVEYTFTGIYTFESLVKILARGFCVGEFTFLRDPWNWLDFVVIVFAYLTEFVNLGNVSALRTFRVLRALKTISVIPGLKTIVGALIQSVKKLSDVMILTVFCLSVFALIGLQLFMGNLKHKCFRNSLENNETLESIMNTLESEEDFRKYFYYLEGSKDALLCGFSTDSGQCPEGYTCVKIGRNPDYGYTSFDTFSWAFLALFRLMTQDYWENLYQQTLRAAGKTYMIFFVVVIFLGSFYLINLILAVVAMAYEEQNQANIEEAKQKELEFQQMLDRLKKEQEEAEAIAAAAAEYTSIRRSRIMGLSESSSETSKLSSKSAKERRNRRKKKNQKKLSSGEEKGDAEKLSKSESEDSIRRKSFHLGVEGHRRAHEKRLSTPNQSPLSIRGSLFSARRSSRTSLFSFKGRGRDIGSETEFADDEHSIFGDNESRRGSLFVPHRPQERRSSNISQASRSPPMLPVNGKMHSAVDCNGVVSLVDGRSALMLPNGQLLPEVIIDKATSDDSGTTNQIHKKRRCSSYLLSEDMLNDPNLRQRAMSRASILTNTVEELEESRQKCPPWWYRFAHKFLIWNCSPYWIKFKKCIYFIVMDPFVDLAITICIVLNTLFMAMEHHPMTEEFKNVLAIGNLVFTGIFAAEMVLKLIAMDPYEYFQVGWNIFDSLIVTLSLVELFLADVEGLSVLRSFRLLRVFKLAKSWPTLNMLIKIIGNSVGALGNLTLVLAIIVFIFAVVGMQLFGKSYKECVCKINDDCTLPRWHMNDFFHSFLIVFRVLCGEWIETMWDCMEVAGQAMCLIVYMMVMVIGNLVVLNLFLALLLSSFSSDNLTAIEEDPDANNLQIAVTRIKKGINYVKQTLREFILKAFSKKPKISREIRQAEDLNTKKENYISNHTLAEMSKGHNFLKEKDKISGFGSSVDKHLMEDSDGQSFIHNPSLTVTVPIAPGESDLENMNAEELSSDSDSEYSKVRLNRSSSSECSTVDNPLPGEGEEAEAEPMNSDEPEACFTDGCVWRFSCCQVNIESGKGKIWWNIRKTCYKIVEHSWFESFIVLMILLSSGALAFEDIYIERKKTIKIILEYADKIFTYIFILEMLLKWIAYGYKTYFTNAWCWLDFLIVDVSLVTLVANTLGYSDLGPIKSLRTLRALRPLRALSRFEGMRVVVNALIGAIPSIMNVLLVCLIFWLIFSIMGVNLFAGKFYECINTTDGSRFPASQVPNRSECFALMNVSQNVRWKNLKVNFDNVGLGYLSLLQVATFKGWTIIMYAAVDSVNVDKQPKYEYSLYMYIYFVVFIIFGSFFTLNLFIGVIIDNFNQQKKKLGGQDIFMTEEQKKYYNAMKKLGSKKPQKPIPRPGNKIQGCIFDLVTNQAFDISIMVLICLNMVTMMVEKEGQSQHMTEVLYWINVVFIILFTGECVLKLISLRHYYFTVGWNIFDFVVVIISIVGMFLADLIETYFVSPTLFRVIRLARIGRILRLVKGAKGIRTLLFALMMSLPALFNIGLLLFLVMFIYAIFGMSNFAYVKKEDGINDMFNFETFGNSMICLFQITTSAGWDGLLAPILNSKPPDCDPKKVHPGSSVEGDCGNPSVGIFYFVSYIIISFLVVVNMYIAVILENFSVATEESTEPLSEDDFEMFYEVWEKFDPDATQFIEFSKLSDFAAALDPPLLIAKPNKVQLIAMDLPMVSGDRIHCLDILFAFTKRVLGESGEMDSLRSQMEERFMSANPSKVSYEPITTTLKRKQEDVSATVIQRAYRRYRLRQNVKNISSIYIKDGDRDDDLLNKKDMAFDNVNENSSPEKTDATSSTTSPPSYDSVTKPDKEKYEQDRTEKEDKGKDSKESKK

Chain of hNav1.5 (Q14524 whole entry, looked up): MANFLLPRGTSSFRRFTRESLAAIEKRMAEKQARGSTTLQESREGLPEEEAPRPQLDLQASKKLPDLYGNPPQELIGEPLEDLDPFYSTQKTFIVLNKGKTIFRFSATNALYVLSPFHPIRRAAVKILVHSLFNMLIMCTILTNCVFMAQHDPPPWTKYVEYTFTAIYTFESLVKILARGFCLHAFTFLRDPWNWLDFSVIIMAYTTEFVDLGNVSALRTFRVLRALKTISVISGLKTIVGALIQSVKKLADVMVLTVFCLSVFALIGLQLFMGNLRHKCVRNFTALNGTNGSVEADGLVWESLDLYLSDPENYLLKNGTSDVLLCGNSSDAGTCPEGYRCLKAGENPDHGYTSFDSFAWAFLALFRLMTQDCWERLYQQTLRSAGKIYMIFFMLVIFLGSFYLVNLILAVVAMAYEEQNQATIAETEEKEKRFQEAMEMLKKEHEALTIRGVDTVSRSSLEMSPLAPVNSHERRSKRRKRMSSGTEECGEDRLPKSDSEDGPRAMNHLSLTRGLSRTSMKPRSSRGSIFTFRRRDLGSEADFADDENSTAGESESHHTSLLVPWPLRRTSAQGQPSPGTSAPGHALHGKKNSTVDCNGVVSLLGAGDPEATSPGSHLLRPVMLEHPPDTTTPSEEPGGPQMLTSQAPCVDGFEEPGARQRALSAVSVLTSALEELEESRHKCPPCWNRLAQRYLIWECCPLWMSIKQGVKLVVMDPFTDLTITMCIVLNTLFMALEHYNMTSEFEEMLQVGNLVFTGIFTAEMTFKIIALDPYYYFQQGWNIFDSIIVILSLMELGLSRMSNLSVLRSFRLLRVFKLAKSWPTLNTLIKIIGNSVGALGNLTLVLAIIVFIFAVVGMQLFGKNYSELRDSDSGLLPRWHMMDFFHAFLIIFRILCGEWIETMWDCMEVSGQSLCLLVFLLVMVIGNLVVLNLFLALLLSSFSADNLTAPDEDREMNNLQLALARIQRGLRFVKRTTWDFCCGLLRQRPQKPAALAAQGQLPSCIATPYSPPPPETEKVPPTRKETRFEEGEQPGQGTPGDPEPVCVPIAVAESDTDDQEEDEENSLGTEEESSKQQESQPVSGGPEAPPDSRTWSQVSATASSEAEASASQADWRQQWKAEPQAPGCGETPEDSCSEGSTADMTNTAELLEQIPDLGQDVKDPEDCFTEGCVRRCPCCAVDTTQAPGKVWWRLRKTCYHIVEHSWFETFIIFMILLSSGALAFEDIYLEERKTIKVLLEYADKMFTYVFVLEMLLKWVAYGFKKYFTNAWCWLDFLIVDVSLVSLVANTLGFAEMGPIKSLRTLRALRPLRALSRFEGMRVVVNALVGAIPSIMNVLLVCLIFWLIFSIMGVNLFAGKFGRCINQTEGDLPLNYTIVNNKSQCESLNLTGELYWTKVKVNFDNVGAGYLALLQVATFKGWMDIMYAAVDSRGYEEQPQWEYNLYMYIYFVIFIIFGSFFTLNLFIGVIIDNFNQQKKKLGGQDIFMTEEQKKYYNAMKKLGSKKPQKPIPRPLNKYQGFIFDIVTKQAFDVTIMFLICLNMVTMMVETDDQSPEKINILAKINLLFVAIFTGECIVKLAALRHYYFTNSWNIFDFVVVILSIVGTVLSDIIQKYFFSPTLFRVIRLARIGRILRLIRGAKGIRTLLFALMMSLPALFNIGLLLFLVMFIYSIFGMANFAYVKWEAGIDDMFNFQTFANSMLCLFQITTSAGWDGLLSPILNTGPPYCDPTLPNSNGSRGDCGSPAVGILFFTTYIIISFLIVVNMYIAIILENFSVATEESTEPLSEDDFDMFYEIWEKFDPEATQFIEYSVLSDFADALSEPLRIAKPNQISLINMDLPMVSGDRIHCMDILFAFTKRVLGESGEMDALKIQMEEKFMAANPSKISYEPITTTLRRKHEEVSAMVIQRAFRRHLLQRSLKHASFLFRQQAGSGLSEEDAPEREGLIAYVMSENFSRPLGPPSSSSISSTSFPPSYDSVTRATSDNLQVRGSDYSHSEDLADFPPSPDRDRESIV

Take `CC[C@H](C)[C@@H]1NC(=O)[C@@H]2CSSC[C@@H]3NC(=O)[C@H](C(C)C)NC(=O)[C@H](CC(C)C)NC(=O)[C@H](CC(N)=O)NC(=O)[C@@H]4CCCN4C(=O)[C@H](CCCNC(=N)N)NC(=O)[C@H](CSSC[C@H](NC(=O)[C@@H](N)CC(=O)O)C(=O)N[C@@H](CC(C)C)C(=O)NCC(=O)N[C@@H](Cc4ccccc4)C(=O)N[C@@H](CCSC)C(=O)N[C@@H](CCCNC(=N)N)C(=O)N[C@@H](CCCCN)C(=O)N2)NC(=O)[C@H](CSSC[C@@H](C(=O)N[C@@H](CCCCN)C(=O)N[C@H](C(=O)N[C@H](C(=O)N[C@@H](Cc2ccccc2)C(N)=O)C(C)C)[C@@H](C)O)NC(=O)[C@H](Cc2c[nH]c4ccccc24)NC(=O)[C@H](CCCCN)NC(=O)[C@H](Cc2c[nH]cn2)NC(=O)[C@H]([C@@H](C)O)NC(=O)[C@H](CCCNC(=N)N)NC(=O)[C@H](CO)NC3=O)NC(=O)[C@H](CCCCN)NC(=O)[C@H](CC(=O)O)NC(=O)[C@H](CC(N)=O)NC(=O)[C@H](CC(=O)O)NC(=O)[C@@H]2CCCN2C1=O` [compound 369] (H-DCLGFMRKCIPDNDKCCRPNLVCSRTHKWCKTVF-NH2; disulfide 2-17, 9-23, 16-30): the IC50 in test [1] (Table 25, use, […]) amounted to 3.29 µM; in test [2] (Table 25, use, […]), 11.1 µM; in test [3] (Table 25, use, […]), 3.54 µM.

With `CC[C@H](C)[C@@H]1NC(=O)[C@@H]2CSSC[C@@H]3NC(=O)[C@H](C(C)C)NC(=O)[C@H](CC(C)C)NC(=O)[C@H](CC(N)=O)NC(=O)[C@@H]4CCCN4C(=O)[C@H](CCCNC(=N)N)NC(=O)[C@H](CSSC[C@H](NC(=O)[C@@H](N)CC(=O)O)C(=O)N[C@@H](CC(C)C)C(=O)NCC(=O)N[C@@H](C)C(=O)N[C@@H](CCSC)C(=O)N[C@@H](CCCNC(=N)N)C(=O)N[C@@H](CCCCN)C(=O)N2)NC(=O)[C@H](CSSC[C@@H](C(=O)N[C@@H](CCC(=O)O)C(=O)N[C@@H](Cc2ccc(O)cc2)C(=O)N[C@H](C(=O)N[C@@H](Cc2ccccc2)C(N)=O)C(C)C)NC(=O)[C@H](Cc2c[nH]c4ccccc24)NC(=O)[C@H](CCCCN)NC(=O)[C@H](Cc2c[nH]cn2)NC(=O)[C@H]([C@@H](C)O)NC(=O)[C@H](CCCNC(=N)N)NC(=O)[C@H](CO)NC3=O)NC(=O)[C@H](CCCCN)NC(=O)[C@H](CC(=O)O)NC(=O)[C@H](CC(N)=O)NC(=O)[C@H](CC(=O)O)NC(=O)[C@@H]2CCCN2C1=O` [compound 789] (H-DCLGAMRKCIPDNDKCCRPNLVCSRTHKWCEYVF-NH2; disulfide 2-17, 9-23, 16-30), the IC50 in test [1] (use-dependent block, hNav1.3) is > 5 µM; in test [2] (use-dependent block, hNav1.5) it was 31.8 µM; in test [3] (use-dependent block, hNav1.7), > 5 µM.

For the compound `CC[C@H](C)[C@@H]1NC(=O)[C@@H]2CSSC[C@@H]3NC(=O)[C@H](C(C)C)NC(=O)[C@H](CC(C)C)NC(=O)[C@H](CC(N)=O)NC(=O)[C@@H]4CCCN4C(=O)[C@H](CCCNC(=N)N)NC(=O)[C@H](CSSC[C@H](NC(=O)[C@@H](N)CC(=O)O)C(=O)N[C@@H](CC(C)C)C(=O)NCC(=O)N[C@@H](Cc4ccccc4)C(=O)N[C@@H](CCSC)C(=O)N[C@@H](CCCNC(=N)N)C(=O)N[C@@H](CCCCN)C(=O)N2)NC(=O)[C@H](CSSC[C@@H](C(=O)N[C@@H](CCCCN)C(=O)N[C@@H](Cc2ccc(O)cc2)C(=O)N[C@@H](C)C(=O)N[C@@H](Cc2ccccc2)C(N)=O)NC(=O)[C@H](Cc2c[nH]c4ccccc24)NC(=O)[C@H](CCCCN)NC(=O)[C@H](Cc2cnc[nH]2)NC(=O)[C@H]([C@@H](C)O)NC(=O)[C@H](CCCNC(=N)N)NC(=O)[C@H](CO)NC3=O)NC(=O)[C@H](CCCCN)NC(=O)[C@H](CC(=O)O)NC(=O)[C@H](CC(N)=O)NC(=O)[C@H](CC(=O)O)NC(=O)[C@@H]2CCCN2C1=O` [compound 15] (H-DCLGFMRKCIPDNDKCCRPNLVCSRTHKWCKYAF-NH2; disulfide 2-17, 9-23, 16-30), the IC50 in test [1] (Table 26, use, […]) worked out at 0.35 µM; in test [2] (Table 26, use, […]), 18.6 µM; in test [3] (Table 26, use, […]), 0.33 µM.

Consider `CC[C@H](C)[C@@H]1NC(=O)[C@@H]2CSSC[C@@H]3NC(=O)[C@H](C(C)C)NC(=O)[C@H](CC(C)C)NC(=O)[C@H](CC(N)=O)NC(=O)[C@@H]4CCCN4C(=O)[C@H](CCCNC(=N)N)NC(=O)[C@H](CSSC[C@H](NC(=O)[C@@H](N)CC(=O)O)C(=O)N[C@@H](CC(C)C)C(=O)NCC(=O)N[C@@H](Cc4ccccc4)C(=O)N[C@@H](CCSC)C(=O)N[C@@H](CCCNC(=N)N)C(=O)N[C@@H](CCCCN)C(=O)N2)NC(=O)[C@H](CSSC[C@@H](C(=O)N[C@@H](CCCCN)C(=O)N[C@@H](Cc2ccc(O)cc2)C(=O)N[C@H](C(=O)N[C@@H](Cc2cccc4ccccc24)C(=O)N[C@@H](Cc2c[nH]c4ccccc24)C(N)=O)C(C)C)NC(=O)[C@H](Cc2c[nH]c4ccccc24)NC(=O)[C@H](CCCCN)NC(=O)[C@H](Cc2c[nH]cn2)NC(=O)[C@H]([C@@H](C)O)NC(=O)[C@H](CCCNC(=N)N)NC(=O)[C@H](CO)NC3=O)NC(=O)[C@H](CCCCN)NC(=O)[C@H](CC(=O)O)NC(=O)[C@H](CC(N)=O)NC(=O)[C@H](CC(=O)O)NC(=O)[C@@H]2CCCN2C1=O` [compound 138] (H-DCLGFMRKCIPDNDKCCRPNLVCSRTHKWCKYV[1Nal]W-NH2; disulfide 2-17, 9-23, 16-30), for which the IC50 was determined as 0.07 µM in test [1] (use-dependent block, hNav1.3); 2.57 µM in test [2] (use-dependent block, hNav1.5); 0.13 µM in test [3] (use-dependent block, hNav1.7).

For `CC[C@H](C)[C@@H]1NC(=O)[C@@H]2CSSC[C@@H]3NC(=O)[C@H](C(C)C)NC(=O)[C@H](CC(C)C)NC(=O)[C@H](CC(N)=O)NC(=O)[C@@H]4CCCN4C(=O)[C@H](CCCNC(=N)N)NC(=O)[C@H](CSSC[C@H](NC(=O)[C@@H](N)CC(=O)O)C(=O)N[C@@H](CC(C)C)C(=O)NCC(=O)N[C@@H](Cc4ccccc4)C(=O)N[C@@H](CCSC)C(=O)N[C@@H](CCCNC(=N)N)C(=O)N[C@@H](CCCCN)C(=O)N2)NC(=O)[C@H](CSSC[C@@H](C(=O)N[C@@H](CCCCN)C(=O)N[C@@H](Cc2ccc(O)cc2)C(=O)N[C@H](C(=O)N[C@@H](Cc2ccccc2)C(N)=O)C(C)C)NC(=O)[C@H](Cc2ccc(C(=O)O)cc2)NC(=O)[C@H](CCCCN)NC(=O)[C@H](Cc2c[nH]cn2)NC(=O)[C@H]([C@@H](C)O)NC(=O)[C@H](CCCNC(=N)N)NC(=O)[C@H](CO)NC3=O)NC(=O)[C@H](CCCCN)NC(=O)[C@H](CC(=O)O)NC(=O)[C@H](CC(N)=O)NC(=O)[C@H](CC(=O)O)NC(=O)[C@@H]2CCCN2C1=O` [compound 363] (H-DCLGFMRKCIPDNDKCCRPNLVCSRTHK[Phe(4-COOH)]CKYVF-NH2; disulfide 2-17, 9-23, 16-30), the IC50 in test [1] (Table 24, use, […]) is 14.9 µM; in test [2] (Table 24, use, […]) it was 18.8 µM; in test [3] (Table 24, use, […]), 15 µM.

Take `CC[C@H](C)[C@@H]1NC(=O)[C@@H]2CSSC[C@@H]3NC(=O)[C@H](Cc4ccc(C(=O)O)cc4)NC(=O)[C@H](CC(C)C)NC(=O)[C@H](CC(N)=O)NC(=O)[C@@H]4CCCN4C(=O)[C@H](CCCNC(=N)N)NC(=O)[C@H](CSSC[C@H](NC(=O)[C@@H](N)CC(=O)O)C(=O)N[C@@H](CC(C)C)C(=O)NCC(=O)N[C@@H](Cc4ccccc4)C(=O)N[C@@H](CCSC)C(=O)N[C@@H](CCCNC(=N)N)C(=O)N[C@@H](CCCCN)C(=O)N2)NC(=O)[C@H](CSSC[C@@H](C(=O)N[C@@H](CCCCN)C(=O)N[C@@H](Cc2ccc(O)cc2)C(=O)N[C@H](C(=O)N[C@@H](Cc2ccccc2)C(N)=O)C(C)C)NC(=O)[C@H](Cc2c[nH]c4ccccc24)NC(=O)[C@H](CCCCN)NC(=O)[C@H](Cc2c[nH]cn2)NC(=O)[C@H]([C@@H](C)O)NC(=O)[C@H](CCCNC(=N)N)NC(=O)[C@H](CO)NC3=O)NC(=O)[C@H](CCCCN)NC(=O)[C@H](CC(=O)O)NC(=O)[C@H](CC(N)=O)NC(=O)[C@H](CC(=O)O)NC(=O)[C@@H]2CCCN2C1=O` [compound 333] (H-DCLGFMRKCIPDNDKCCRPNL[Phe(4-COOH)]CSRTHKWCKYVF-NH2; disulfide 2-17, 9-23, 16-30): the IC50 worked out at 4.47 µM in test [1] (Use), 7.5 µM in test [2] (Use) and 5.77 µM in test [3] (Use).

Turning to `CC[C@H](C)[C@@H]1NC(=O)[C@@H]2CSSC[C@@H]3NC(=O)[C@H](C(C)C)NC(=O)[C@H](CC(C)C)NC(=O)[C@H](CC(N)=O)NC(=O)[C@@H]4CCCN4C(=O)[C@H](CCCNC(=N)N)NC(=O)[C@H](CSSC[C@H](NC(=O)[C@@H](N)CC(=O)O)C(=O)N[C@@H](CC(C)C)C(=O)NCC(=O)N[C@@H](Cc4ccc(C(F)(F)F)cc4)C(=O)N[C@@H](CC(C)C)C(=O)N[C@@H](CCCNC(=N)N)C(=O)N[C@@H](CCCCN)C(=O)N2)NC(=O)[C@H](CSSC[C@@H](C(=O)N[C@@H](CCCCN)C(=O)N[C@@H](Cc2ccc(O)cc2)C(=O)N[C@H](C(=O)N[C@@H](Cc2ccccc2)C(N)=O)C(C)C)NC(=O)[C@H](Cc2c[nH]c4ccccc24)NC(=O)[C@H](CCCCN)NC(=O)[C@H](Cc2c[nH]cn2)NC(=O)[C@H]([C@@H](C)O)NC(=O)[C@H](CCCNC(=N)N)NC(=O)[C@H](CO)NC3=O)NC(=O)[C@H](CCCCN)NC(=O)[C@H](CC(=O)O)NC(=O)[C@H](CC(N)=O)NC(=O)[C@H](CC(=O)O)NC(=O)[C@@H]2CCCN2C1=O` [compound 668], the IC50 stood at 0.011 µM in test [1] (use-dependent protocol, hNav1.3); 4.4 µM in test [2] (use-dependent protocol, hNav1.5); 0.18 µM in test [3] (use-dependent protocol, hNav1.7).

Source of the values: patent US9340590B2 (priority 2011, dated 2016).
